In patent publication US20250161201A1, “COSMETIC COMPOSITION” (THE BOOTS COMPANY PLC, priority 2022, published 2025):

Tests used:
[1] = test system: Interleukin-8 (IL-8) mRNA; assay: IL-8 mRNA expression by RT-qPCR in NHEK; assay type: cell-based, human; conditions: 24 hours, used on its own, vs media only control
Protocol: Interleukin 8 is a measurable biomarker for inflammation. The effectiveness of the presently described compositions in reducing inflammation, and promoting skin barrier repair, are assessed by measuring the reduction in the expression of Interleukin-8 (IL-8) in the skin cells tested. Over expression of IL-8 in the epidermis can lead to disruption of epidermal homeostasis i.e. disruption of the skin cell differentiation, proliferation and desquamation processes.
In the present experiment, the effects of compounds were assessed in normal human epidermal keratinocytes (NHEK). More specifically, the effects of these compounds were evaluated using real time polymerase chain reaction (RT-qPCR) technology. […]
IL-8 mRNA expression was analysed using RT-qPCR as part of this array. […] The amount and quality of mRNA was evaluated using capillary electrophoresis with a Bioanalyzer 2100 (Agilent technologies). […] The cDNA quantities were then diluted if necessary, to achieve equal amount of cDNA concentration in each test sample, before carrying out PCR (Polymerase Chain Reaction) using the LightCycler (trade name) system (commercially available from Roche Molecular System Inc.) according to the supplier's instructions. […] The more copies of DNA/cDNA that have been produced through PCR, the more SYBR Green molecules will bind the DNA/cDNA and the higher the level of fluorescence. […]

[2] = test system: normal human epidermal keratinocytes (NHEK); assay: Preliminary cytotoxicity assay (WST-8) in keratinocytes; assay type: cell-based; conditions: 24 hours treatment, WST-8, ingredient on its own
Protocol: Normal human epidermal keratinocytes (NHEK) were seeded in 24-well plates and placed in culture medium (Keratinocyte-serum free media (SFM) supplemented with Epidermal Growth Factor at concentration 0.025 ug/ml and Pituitary extract at concentration of 0.05 mg/ml) for 24 hours. To determine suitable non-toxic ingredient concentrations, a cytotoxicity assay was first carried out where the NHEKs were treated with ingredients or ingredient blends for 24 hours before being incubated with WST-8 (highly water-soluble tetrazolium salt) which is reduced to a water-soluble orange coloured product (formazan) by viable, living cells and is quantified by optical density measurement at 450 nm using a spectrophotometer (VERSAmax, Molecular Devices). This reduction is proportional to the number of living cells and their metabolic activity

## NC(=O)c1cccnc1 [Niacinamide, niacinamide]
[1]
  increase of IL-8 mRNA expression: 18%
[2]
  maximum concentration usable without causing a loss in viability or death of the epidermal keratinocytes: 500 ppm
